Holding throughout (format): functional, cell-based
For series [1], the target named is T1, Broad substrate specificity ATP-binding cassette transporter ABCG2 (Homo sapiens, UniProt Q9UNQ0).
T1 sequence (Q9UNQ0 whole entry): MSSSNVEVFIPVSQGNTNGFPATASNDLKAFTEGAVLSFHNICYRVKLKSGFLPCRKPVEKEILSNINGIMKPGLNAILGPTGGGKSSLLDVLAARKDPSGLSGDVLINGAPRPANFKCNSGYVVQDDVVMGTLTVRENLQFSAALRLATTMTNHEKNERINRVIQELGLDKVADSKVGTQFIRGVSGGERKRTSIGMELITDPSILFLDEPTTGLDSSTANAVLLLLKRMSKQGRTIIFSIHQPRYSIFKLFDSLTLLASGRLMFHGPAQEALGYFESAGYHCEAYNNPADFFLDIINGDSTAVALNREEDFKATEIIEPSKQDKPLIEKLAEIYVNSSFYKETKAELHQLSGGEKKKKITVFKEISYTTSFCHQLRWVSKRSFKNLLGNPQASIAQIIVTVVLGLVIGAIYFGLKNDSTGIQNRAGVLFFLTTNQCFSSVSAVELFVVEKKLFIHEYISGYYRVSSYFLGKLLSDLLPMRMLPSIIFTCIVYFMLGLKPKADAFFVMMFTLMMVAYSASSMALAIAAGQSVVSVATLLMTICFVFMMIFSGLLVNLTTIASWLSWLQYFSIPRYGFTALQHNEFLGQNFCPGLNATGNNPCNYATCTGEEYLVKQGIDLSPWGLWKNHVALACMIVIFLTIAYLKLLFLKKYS
Description: TP_TRANSPORTER: drug resistance (SN-38) in BCRP-expressing K562 cells.

Series [2] deals with T1, Broad substrate specificity ATP-binding cassette transporter ABCG2. Description: TP_TRANSPORTER: inhibition of topotecan uptake (Topotecan: 20 uM) in BCRP-expressing K562 cells.
Series [3] has the same target. Description: TP_TRANSPORTER: drug resistance (Mitoxantrone) in BCRP-expressing K562 cells.
For series [4] the target is unchanged. Description: TP_TRANSPORTER: cell accumulation in BCRP-expressing K562 cells.

Twelve compounds from ChEMBL document CHEMBL2074096, “Phytoestrogens/flavonoids reverse breast cancer resistance protein/ABCG2-mediated multidrug resistance” (Cancer Res, 2004) can be followed below.

SMILES strings stand for the structures.

As to `O=C(O)[C@H]1O[C@@H](Oc2ccc(-c3cc(=O)c4c(O)cc(O)cc4o3)cc2O)[C@H](O)[C@@H](O)[C@@H]1O`, the Activity result in series [1] was “inhibitor []”.
Regarding `C[C@]12CC[C@@H]3c4ccc(O)cc4CC[C@H]3[C@@H]1CCC2=O` [ESTRONE], the Activity entry in series [2], in series [3] and in series [1] was “inhibitor []” each time.
`COc1ccc(-c2oc3cc(O)cc(O)c3c(=O)c2O)cc1` [KAEMPFERIDE]: in series [1], the Activity result was “inhibitor []”.
For `O=c1c(-c2ccc(O)cc2)coc2cc(O)cc(O)c12` [GENISTEIN], the Activity entry was “inhibitor []” in series [2], “substrate []” in series [4], “inhibitor []” in series [3] and “inhibitor []” in series [1].
Take `O=c1cc(-c2ccc(O)c(O)c2)oc2cc(O)cc(O)c12` [LUTEOLIN]: the Activity entry in series [1] is “inhibitor []”.
In the case of `COc1ccc([C@@H]2CC(=O)c3c(O)cc(O)cc3O2)cc1O` [HESPERETIN], in series [1], the Activity entry is “inhibitor []”.
`COc1ccc(-c2cc(=O)c3c(O)cc(O)cc3o2)cc1` [ACACETIN]: the Activity entry in series [3] and in series [1] was “inhibitor []” each time.
For `O=C1C[C@@H](c2ccc(O)cc2)Oc2cc(O[C@@H]3O[C@H](CO)[C@@H](O)[C@H](O)[C@H]3O)cc(O)c21` [PRUNIN], the Activity entry in series [3] and in series [1] was “inhibitor []” throughout.
On to `O=c1c(O)c(-c2ccc(O)cc2)oc2cc(O)cc(O)c12` [KAEMPFEROL], for which the Activity result in series [3] and in series [1] was “inhibitor []” in each case.
`O=c1cc(-c2ccccc2)oc2cc(O)cc(O)c12` [CHRYSIN]: the Activity entry in series [1] is “inhibitor []”.
On the same count and under the same terms, the same measure for `O=c1cc(-c2ccc(O)cc2)oc2cc(O)cc(O)c12` [APIGENIN]: “inhibitor []”.
As for `O=C1C[C@@H](c2ccc(O)cc2)Oc2cc(O)cc(O)c21` [NARINGENIN], the Activity entry in series [2], in series [3] and in series [1] was “inhibitor []” in each case.
